Test system: bone marrow derived murine macrophages
Test: mRNA/miRNA expression in LA1-treated macrophages
Assay type: cell-based
Procedure: Murine macrophage differentiation and culture-Bone marrow derived cells (BMDC) were aseptically harvested from 6-8 week-old female mice by flushing leg bones of euthanized mice with phosphate buffered saline (PBS), 0.5% BSA, 2 mM EDTA, incubating in red cell lysis buffer (155 mM NH4Cl, 10 mM NaHCO3 and 0.1 mM EDTA) and centrifuging over Histopaque 1083 to purify the mononuclear cells. Approximately 5×10^7 BMDC were purified by gradient centrifugation from the femurs and tibias of a single mouse. Purified mononuclear cells were cultured in RPMI+20% serum+50 ng/ml M-CSF (PeproTech). Macrophage Polarization-Bone marrow derived macrophages were polarized with either IFNγ (20 ng/ml, Peprotech) plus LPS (100 ng/ml, Sigma) or LPS alone for 24 h or IL-4 (20 ng/ml, Peprotech) for 24-48 h. In some cases, macrophages were incubated with inhibitors of Stat3 ([…]) or cMyc (10058-F4, Selleck). […] Secreted protein was measured in culture supernatants by ELISA assays. […] Sybr green-based qPCR was performed using primers to murine Gapdh (Mm_Gapdh_1_SG), Arg1 (Mm_[…]_SG_QT00134288) Tgfb (Mm_Tgfb_1_SG Qiagen QT00145250), […] (Mm_Il10_1_SG Qiagen QT00106169), Il6 (Mm_Il6_1_SG Qiagen QT00098875), Nos2 (Mm_Nos2_1_SG Qiagen QT00100275), Il12b (Mm_Il12b_1_SG Qiagen QT00153643), Ifng (Mm_Ifng 1_SG Qiagen QT01038821), Il1b (Mm_Il1b_2_SG Qiagen QT01048355), Tnfa (Mm_Tnfa_1_SG Qiagen QT00104006), Vegfa (Mm_Vegfa_1_SG Qiagen QT00160769), Pdgfb (Mm_Pdgfb_1_SG Qiagen QT00266910) and human GAPDH (Hs_GAPDH_1_SG Qiagen QT00079247), ARG1 (Hs_Arginase_1_SG Qiagen QT00068446, IL6 (Hs_Il6_1_SG Qiagen QT00083720), NOS2 (Hs_NOS2_1_SG Qiagen QT00068740), IL12B (Hs_IL12B_1_SG Qiagen QT00000364), and PDGFB (Hs_PDGFB_1_SG Qiagen QT00001260) (Qiagen QuantiTect Primer Assay). mRNA levels were normalized to Gapdh or GAPDH (ΔCt=Ct gene of interest-Ct Gapdh) and reported as relative mRNA expression (ΔΔCt=2^-(ΔCt sample-ΔCt control)) or fold change. […]

O=C(O)c1ccc(-c2ccc(/C=C3\SC(=S)N(Cc4ccccc4)C3=O)o2)cc1 [LA1, leukadherin 1]
expression of Il1b, Tnfa, Il12, Nos2 and Ifng mRNAs (IFNγ+LPS stimulated bone marrow derived murine macrophages): increases in expression of Il1b, Tnfa, Il12, Nos2 and Ifng mRNAs | Let7a expression (macrophages): stimulated Let7a expression | Pdgfb and Il6 expression (macrophages): inhibited Pdgfb and Il6 expression

From patent US11679100B2, “Methods of enhancing immunity” (The Regents of the University of California, priority 2018, dated 2023)
